# Data published in US8778882B2, “Agent for strengthening calcium containing tissue and use thereof” (Hayashibara Co., Ltd., priority 2002, dated 2014).
# Columns and labels:
# Mouse MC3T3-E1 cells = experiment: Calcium deposition by alizarin red-S staining; assay type: cell-based; design: key: +: same strength of red color as a negative control (only medium containing 0.2% (v/v) ethanol); ++: half strength of the positive control; +++: same strength of red color as a positive control (indomethacin); settings: MC3T3-E1, 20 mM each compound (so in the source), eight days, alizarin red-S red color judgement
# Description: Following Experiment 1 which investigates differentiating pre-osteoblastic cells into osteoblastic cells, some of organic compounds were investigated whether they actually enhance calcium deposition or not. Indomethacin (commercialized by Funakoshi, Co., Ltd., Tokyo, Japan) (positive control), kaempferol (commercialized by Funakoshi, Co., Ltd., Tokyo, Japan), hesperetin (commercialized by Funakoshi, Co., Ltd., Tokyo, Japan), gallic acid (commercialized by Nacalai Tesque, Kyoto, Japan), and coffeic acid (commercialized by Wako Pure Chemical Industries, Osaka, Japan) were selected as organic compounds. Mouse MC3T3-E1 cells were treated with 20 mM each above compound dissolved in 1 ml of α-MEM medium supplemented with 10% (v/v) fetal calf serum and containing 10 mM β-glycerophosphate. Since final ethanol concentration in the medium is 0.2% (v/v), α-MEM medium containing 0.2% (v/v) ethanol was prepared as a negative control. The cells were inoculated for eight days as changing the medium therewith to fresh medium with or without each sample per three days. The cells were applied to measure calcium deposition therein by usual alizarin red-S staining method. Briefly to the cells washed with 1 ml of Dulbecco phosphate buffer saline twice after removing the medium were added 1 ml of 50 (v/v) % ethanol aqueous solution and incubated for 10 minutes. After removing the 50 (v/v) % ethanol aqueous solution, the cells were incubated with 1 ml of distilled water for 10 minutes. After removing the water, the cells were applied with 1 ml of 1% (w/v) alizarin red-S solution, incubated for 10 minutes, and washed with 1 ml of distilled water for three times after removing alizarin red-S solution. Then, the calcium deposition amount was measured in a manner of judging red color on the plate bottom since deposited calcium was stained by the above treatment. The judgement criterion “+” means same strength of red color as a negative control (only medium containing 0.2% (v/v) ethanol), “+++” means same strength of red color as a positive control (indomethacin), and “++” means half strength of the positive control.
# Rat Femur and Tibia = experiment: Enhancing calcium deposition in rat femur and tibia; assay type: in vivo; settings: rats fed sample in high sucrose feeding stuff for eight weeks
# Experimental: The experiment was performed using six three-weeks-aged female Wister rats per one group. The rats were fed with high sucrose feeding stuff containing ingredients listed Table 11 (In the Table, each value means “weight %”.) and one part by weight of each test sample; hesperetin (commercialized by Funakoshi, Co., Ltd., Tokyo, Japan), quercetin (commercialized by Tokyo Kasei Kogyo, Co., Ltd., Tokyo, Japan), α-glycosyl hesperidin (product name “αG HESPERIDINE”, commercialized by Hayashibara Shoji Inc., Okayama, Japan), α-glycosyl rutin (product name “αG RUTIN P”, commercialized by Hayashibara Shoji Inc., Okayama, Japan), or ipriflavone (commercialized by Daito Corporation, Toyama, Japan) (positive control). As a negative control, rats fed with feedstuff containing one part by weight of sucrose replacing test sample were prepared. The rats were allowed to freely take water. The rats were killed after eight weeks, and then, their femurs and tibias were excised. Each femur or tibia dried at 100° C. for about six hours was measured by electric even balance for high precision analysis (product name “HA180M/12QM”, commercialized by A & D Co, Ltd., Tokyo, Japan), and then, each bone was placed into a crucible and burned in an incinerator at 950° C. for six hours. The cinerary resultant was resolved in hydrochloric solution and provided for measuring calcium amount by atomic absorption photometer. Calcium amount per one dried bone was calculated and compared each other.
structure (smiles),measurement,setting,value
COc1ccc([C@@H]2CC(=O)c3c(O)cc(O)cc3O2)cc1O [Hesperetin],Calcium Deposition Amount,Mouse MC3T3-E1 cells,+++
same,Calcium Content Per One Dried Bone,Rat Femur and Tibia; Femur,125.1 mg
same,Dried Bone Mass,Rat Femur and Tibia; Femur,0.463 g
same,Calcium Content Per One Dried Bone,Rat Femur and Tibia; Tibia,109.0 mg
same,Dried Bone Mass,Rat Femur and Tibia; Tibia,0.357 g
